In paper PMC8623047, “Novel Antioxidants and α-Glycosidase and Protein Tyrosine Phosphatase 1B Inhibitors from an Endophytic Fungus Penicillium brefeldianum F4a” (Journal of Fungi, 2021):

Assays:
[1] = ABTS radical scavenging assay; details: mean ± SD, n = 3; 6 min, 734 nm
Protocol: The ABTS free radical scavenging assay was tested according to the previously reported methods. […] The mixture was incubated in darkness at room temperature for 12 h before use. […] Then, 100 μL of the sample at various concentrations in ethanol (the blank control used 100 μL of ethanol instead of the sample) was added to 3.0 mL of diluted ABTS^•+ solution and mixed vigorously. […] L-Ascorbic acid was used as the positive control.

PTP1B = target: T1, PTP1B (Homo sapiens, UniProt P18031); experiment: PTP1B inhibitory assay (p-NPP substrate); format: biochemical; details: mean ± SD, n = 3; sample concentration achieving 50% of activity
T1 sequence (P18031 1-435): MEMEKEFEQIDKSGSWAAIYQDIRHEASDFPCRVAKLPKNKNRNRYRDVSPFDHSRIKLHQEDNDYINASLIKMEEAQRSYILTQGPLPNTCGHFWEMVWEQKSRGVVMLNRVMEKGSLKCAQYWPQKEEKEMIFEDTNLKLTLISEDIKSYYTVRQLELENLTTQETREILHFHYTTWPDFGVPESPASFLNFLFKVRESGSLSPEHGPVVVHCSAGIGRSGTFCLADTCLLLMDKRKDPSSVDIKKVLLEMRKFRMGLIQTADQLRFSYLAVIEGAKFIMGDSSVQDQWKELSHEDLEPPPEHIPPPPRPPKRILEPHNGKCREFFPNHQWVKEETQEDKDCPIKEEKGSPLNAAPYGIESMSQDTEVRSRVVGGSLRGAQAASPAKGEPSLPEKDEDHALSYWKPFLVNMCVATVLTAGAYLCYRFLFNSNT
Protocol: The PTP1B inhibitory activity was established according to the previously reported methods. The reagent para-nitrophenyl phosphate (p-NPP) was used as a substrate for PTP1B. Then, 81 μL enzyme in buffer (pH 7.5), including EDTA (1 mM), Tris-HCl (25 mM), dithiothreitol (DTT) (1 mM), β-mercaptoethanol (2 mM), and 10 μL of sample at various concentrations in DMSO (the blank control used 10 μL of DMSO instead of the sample), was incubated in 96-well plates at 37 °C for 10 min. Then, 4 μL p-NPP (10 mM) in buffer was added and incubated at 37 °C for 30 min. Next, 5 μL of 2 M NaOH solution was added to terminate the reaction. Then, the absorbance was determined at 405 nm wavelength.

[2] = DPPH radical scavenging assay; details: mean ± SD, n = 3; 30 min, 517 nm
Protocol: The DPPH free radicals scavenging assay was tested according to the previously reported methods. First, 100 μL of sample at different concentrations in ethanol (the blank control used 100 μL of ethanol instead of the sample) was added to 96 wells, followed by 100 μL of 0.15 mM DPPH. […] L-Ascorbic acid was used as the positive control.

[3] = previous studies; cited from earlier work

SMILES	EC50 [1]	EC50 (PTP1B)	EC50 [2]	DPPH• scavenging activity IC50 [3]
O=C1O[C@H]([C@@H](O)CO)C(O)=C1O [L-Ascorbic acid, reference compound]	18.8 ± 3.39 µM		6.12 ± 0.17 µM	
C[C@]1(O)Cc2oc3cc(O)c(O)cc3c(=O)c2CO1 [Compound 5, penialidin F]	7.61 ± 0.46 µM	> 50 µM	28.4 ± 3.16 µM	
COc1cc(O)cc(C)c1CC(=O)O [Compound 9, 2-(4-hydroxy-2-methoxy-6-methylphenyl) acetic acid]	30 ± 4.17 µM	> 50 µM	> 100 µM	
COc1cc(O)cc(C)c1Cc1oc(C)cc1C(=O)O [Compound 2, peniorcinol B]	28.2 ± 2.87 µM	> 50 µM	> 100 µM	
COc1cc(O)cc(C)c1Cc1oc(C[C@@H](C)O)cc1C(=O)O [Compound 1, peniorcinol A]	21.9 ± 1.06 µM	> 50 µM	> 100 µM	

Continued, in another order:

EC50 [1]	EC50 (PTP1B)	EC50 [2]	SMILES	DPPH• scavenging activity IC50 [3]
15 ± 2.57 µM	> 50 µM	30.1 ± 2.83 µM	CC1=Cc2oc3cc(O)c(O)cc3c(=O)c2CO1 [Compound 6, myxotrichin C]	
14.5 ± 0.46 µM	> 50 µM	> 100 µM	C[C@]1(O)Cc2oc3c(C(=O)O)c(O)c(O)cc3c(=O)c2CO1 [Compound 4, penialidin A]	156.38 µg/mL
32.7 ± 3.86 µM	> 50 µM	> 100 µM	C=C1C=CC(=O)[C@]1(CO)Cc1c(C)cc(O)cc1OC [Compound 3, peniorcinol C]	
	11.7 ± 1.03 µM		O=C(O)Cc1c[nH]c2ccccc12 [Compound 8, indole-3-acetic acid]	
	8.87 ± 0.91 µM		Cc1cc2nc3c(=O)[nH]c(=O)nc-3n(C[C@H](O)[C@H](O)[C@H](O)CO)c2cc1C [Compound 7, riboflavin]	
